In patent US8563009B2, “Use of monomycolyl glycerol (MMG) as an adjuvant” (priority 2007, dated 2013):

How the values were obtained:
[1] = test system: IFN-γ release by PBMC upon restimulation with antigen; assay: IFN-γ release by lymphocytes of mice immunised with Ag85B-ESAT-6 in adjuvant; type: in vivo, C57BL/6 mice; details: for immune response (IFN-γ release by PBMC) in the blood one week after the last vaccination: Ag85B-ESAT-6 in DDA, 10 μg MMG or analogue
[2] = test system: human peripheral blood monocyte-derived immature DC (iDC); assay: Activation of human immature dendritic cells, surface markers by flow cytometry; type: cell-based; details: 24 h, 10 μg/ml lipid; for mean fold increase in CD86 levels above levels associated with untreated iDC: six individual donors
[3] = test system: human peripheral blood monocyte-derived immature DC (iDC); type: cell-based; details: 24 h, 10 μg/ml lipid, ELISA, Tukey test
[4] = 10 μg lipid in 250 μg DDA liposomes with 2 μg Ag85B-ESAT-6, s.c.

Molecule	immune response (IFN-γ release by PBMC) in the blood one week after the last vaccination [1]	DC activation, upregulation of CD86, CD40 and HLA-DR (rank among purified apolar lipids) [2]	mean fold increase in CD86 levels above levels associated with untreated iDC [2] [fold]	IFN-γ production, draining lymph node (in words) [1, 4]	IL-6 release by DC [3]	IFN-γ levels upon restimulation of PBMC isolated from the draining lymph node [1, 4] [ng/mL]
CCCCCCCCCCCCCCCCCC[N+](C)(C)CCCCCCCCCCCCCCCCCC.[Br-] [DDA, dimethyldioctadecylammonium]	lower effect					
CCCCCCCC(O)C(CCCCCC)C(=O)OCC(O)CO (centres unmarked) [synthetic MMG analogue with 16 carbons, 3-hydroxy-2-hexyl-decanoic acid-2,3-dihydroxypropyl ester]	comparable levels of responses					
triacyl glycerols [TAGs]		induced less activation	1.32±0.14	very little IFN-γ release		
phenolic glycolipid [PGL]		induced less activation	1.52±0.26	very little IFN-γ release		
monomycolyl glycerol [MMG]	comparable levels of responses	most potent inducer of DC activation	1.91±0.29		significantly greater levels	10
phthiocerol dimycocerosate A [PDIM A]		second most active lipid	1.82±0.43	albeit to a lower level		
CCCCCCCCCCCCCCCCCC(O)C(CCCCCCCCCCCCCCCC)C(=O)OCC(O)CO (centres unmarked) [synthetic MMG analogue with 36 carbons, 3-hydroxy-2-hexadecylicosanoic acid-2,3-dihydroxypropyl ester]	comparable levels of responses					
